Results on 3 compounds are retold here after patent US8574546B2, “Substituted aryl-fluoroborates as imaging agents” (The University of British Columbia, priority 2007, dated 2013).

Data set [1] is described as follows: Rate of defluorination (18F/19F isotopic exchange) of aryltrifluoroborates, TLC autoradiography. Type of data set: physicochemical. As to conditions: FIGS. 1-4, time points 0-180 minutes after labeling.
Protocol: A solution of boronic acid/ester at approximately 200 mM in 3 μl DMF is made, and 3 μL of aqueous fluoride at 800 mM added, comprising ˜1 mCi of carrier free ^18F (˜0.6 pmol of ^18F) and carrier ^19F in the form of KHF2 in 800 mM HOAc at pH 3-4, in a total volume of 10 μl at 10 mM total, providing 100 nmol of total fluoride at a pH of 4.5. Following a one hour labeling reaction at room temperature, the extent of fluorination as well as the stability with regards to isotopic exchange is evaluated by thin layer chromotography TLC as described below.
1 μL of the fluorination mix is diluted 1:100 in 200 mM phosphate buffer pH 7.5, 100 mM K^19F and allowed to equilibrate. A “zero” time point is taken, consisting of 1 μL of the fluorination mix added to the above phosphate-KF solution, mixed and then 0.5 μL of this dilution is immediately spotted on a TLC plate. […] A separate dilution is made for each time point. Spots are dried on the plate briefly in ambient air. […]
Once completed, an aliquot (1.5 μL) from the fluorination reaction solution is the added to a volume of 300 μL of a chase solution containing 200 mM phosphate and 100 mM KF (pH 7.5). […] Autoradiograms are then generated and analyzed by a phosphoimager. The densities of the free fluoride spot and the ArBF3 spot are quantified. […]
Data set [2] is described as follows: [18F] isotope exchange of [18/19F]-(3), dissociation rate of [18F]-fluoride from the trifluoroborate. As to conditions: 200 mM PO4, pH 7.5, 100 mM [19F]-NaF. The class given is physicochemical. On the procedure:
[^18F] Isotope Exchange—Using the Low-Activity Radiochemical Synthesis of [^18/19F]-(3).
In order to assay the dissociation rate of [^18F]-fluoride from the trifluoroborate (3), The six aliquots of Sample-A (each 10 μL, 1.5 nmol [^18/19F]-(3), 0.45 μCi (t=184 min)) were diluted 30 fold into 300 μL of a 200 mM PO4, pH 7.5, 100 mM [^19F]—NaF solution at different times. A volume of 0.5 μL of each dilution was spotted on a TLC plate which is run 2 inches in a 5:95 NH4OH:ethanol developing solution. Each spot that was deposited on the plate had spent increasing amounts of time in the solution containing a vast excess of [^19F]-fluoride. Following autoradiography, a rate constant for the isotopic exchange of [^18F]-fluoride from [^18/19F]-(3) was calculated.

In the case of `O=C(O)c1cccc(B(O)O)c1` [Compound 12], the “retention of the fluorine radioisotope (18F) on TLC autoradiogram” value in data set [1] was “retain the fluorine radioisotope longer than compounds 10 or 19”.

In the case of `OB(O)c1cccc(F)c1F` [Compound 22], the “retention of the fluorine radioisotope (18F) on TLC autoradiogram” value in data set [1] is listed as “retain the fluorine radioisotope longer than compounds 10 or 19”.

Consider `O=C1N[C@H]2[C@H](CS[C@H]2CCCCC(=O)N2CCN(C(=O)c3c(F)cc(F)c([B-](F)(F)F)c3F)CC2)N1` [(3), (2-(1,3,5-trifluoro-4-(trifluoroboryl)benzoyl)piperazin-1-yl) biotin], for which the “period in which 10% of the fluoride is solvolytically liberated” value in data set [2] is no less than 833 min.
